Test results: patent publication US20250011329A1, “SUBSTITUTED PIPERIDINYL-METHYLPURINE PYRIDINES AND RELATED COMPOUNDS AND THEIR USE IN TREATING DISEASES AND CONDITIONS” (K36 Therapeutics, Inc., priority 2023, published 2025)

What was measured:
[1] = target: recombinant human NSD2 (Homo sapiens (Human), UniProt O96028); experiment: NSD2 inhibitory assay (modified RBC HotSpot HMT Assay); assay type: biochemical; details: 2 nM NSD2, chicken oligonucleosomes 0.05 mg/ml, 3H-SAM 1 μM, 1 hour at 30° C.
recombinant human NSD2, sequence (O96028 2-1365 limits assumed): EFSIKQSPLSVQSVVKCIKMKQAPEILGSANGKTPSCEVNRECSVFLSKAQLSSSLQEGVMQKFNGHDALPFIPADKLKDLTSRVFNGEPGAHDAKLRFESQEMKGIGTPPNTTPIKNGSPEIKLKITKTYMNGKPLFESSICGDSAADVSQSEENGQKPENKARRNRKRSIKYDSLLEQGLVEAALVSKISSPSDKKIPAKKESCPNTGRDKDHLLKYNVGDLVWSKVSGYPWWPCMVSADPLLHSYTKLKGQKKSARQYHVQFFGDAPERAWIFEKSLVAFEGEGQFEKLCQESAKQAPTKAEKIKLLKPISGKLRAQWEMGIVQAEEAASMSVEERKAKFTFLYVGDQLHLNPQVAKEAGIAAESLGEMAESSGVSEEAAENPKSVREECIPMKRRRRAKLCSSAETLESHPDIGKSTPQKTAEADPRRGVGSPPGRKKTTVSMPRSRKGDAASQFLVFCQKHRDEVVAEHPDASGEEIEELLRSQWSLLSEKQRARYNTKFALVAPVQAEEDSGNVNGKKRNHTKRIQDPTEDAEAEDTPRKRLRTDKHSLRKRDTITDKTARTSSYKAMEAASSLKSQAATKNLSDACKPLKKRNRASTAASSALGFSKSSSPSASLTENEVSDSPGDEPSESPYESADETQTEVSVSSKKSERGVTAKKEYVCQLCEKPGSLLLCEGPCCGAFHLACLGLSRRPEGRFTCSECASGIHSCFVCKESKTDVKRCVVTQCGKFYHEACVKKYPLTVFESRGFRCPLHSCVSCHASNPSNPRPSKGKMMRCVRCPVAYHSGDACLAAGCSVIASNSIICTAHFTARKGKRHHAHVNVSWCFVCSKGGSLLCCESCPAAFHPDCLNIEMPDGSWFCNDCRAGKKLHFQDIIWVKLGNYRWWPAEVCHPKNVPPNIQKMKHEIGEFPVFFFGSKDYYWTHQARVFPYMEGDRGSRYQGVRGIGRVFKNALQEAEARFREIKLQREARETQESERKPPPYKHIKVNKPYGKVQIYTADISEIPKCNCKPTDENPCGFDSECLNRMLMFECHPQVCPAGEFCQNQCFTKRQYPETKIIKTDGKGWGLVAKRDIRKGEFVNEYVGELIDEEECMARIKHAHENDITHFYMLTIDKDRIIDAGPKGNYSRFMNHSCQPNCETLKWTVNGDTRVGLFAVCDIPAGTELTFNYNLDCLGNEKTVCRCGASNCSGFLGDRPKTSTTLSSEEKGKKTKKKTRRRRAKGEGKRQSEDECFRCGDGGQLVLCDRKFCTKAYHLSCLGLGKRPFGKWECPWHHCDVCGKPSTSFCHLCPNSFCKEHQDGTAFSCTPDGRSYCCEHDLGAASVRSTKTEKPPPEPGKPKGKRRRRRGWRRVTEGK
Method: Exemplary compounds were tested for NSD2 inhibitory activity using a modified RBC HotSpot HMT Assay.
A reaction mixture was prepared by adding oligonucleosomes from Chicken (0.05 mg/ml) to freshly prepared reaction buffer containing 50 mM Tris-HCl (pH 8.5), 50 mM NaCl, 5 mM MgCl2, 0.01% Brij35, 1 mM DTT, and 1% DMSO followed by the addition of recombinant human NSD2, (amino acids 2-end) with N-terminal His tag (2 nM; GenBank Accession No. NM_001042424; MW=155.5 kDa; expressed in Sf9 insect cells) and gentle mixing. The test compounds were diluted in DMSO, added to the reaction mixture in nanoliter amounts by using Acoustic Technology (Echo 550, LabCyte Inc. Sunnyvale, CA) and incubated for 20 minutes at room temperature. The reaction was initiated by the addition of S-Adenosyl-L-[methyl-^3H]methionine (3H-SAM; 1 μM), and the mixture was incubated for 1 hour at 30° C. The reaction mixture was delivered to filter paper and the methylated substrate was quantified by scintillation counting. Data analysis was performed using Excel and GraphPad Prism software for IC50 curve fits. For additional information on the histone methyltransferase assay, see, for example, Horiuchi K Y, et al., “Assay Development for Histone Methyltransferases,” Assay Drug Dev Technol. 2013 May; 11(4):227-36.

[2] = target: recombinant human NSD1 (Homo sapiens, UniProt Q96L73); experiment: NSD1 inhibitory assay; assay type: biochemical; details: 2 nM NSD1, chicken oligonucleosomes 0.05 mg/ml, 3H-SAM 1 μM, 1 hour at 30° C.
Method: An exemplary compound was tested for NSD1 inhibitory activity.
A reaction mixture was prepared by adding oligonucleosomes from Chicken (0.05 mg/ml) to freshly prepared reaction buffer containing 50 mM Tris-HCl (pH 8.5), 50 mM NaCl, 5 mM MgCl2, 0.01% Brij35, 1 mM DTT, and 1% DMSO followed by the addition of recombinant human NSD1 (amino acids 2-end) with N-terminal His tag (2 nM) and gentle mixing. The test compounds were diluted in DMSO, added to the reaction mixture in nanoliter amounts by using Acoustic Technology (Echo 550, LabCyte Inc. Sunnyvale, CA) and incubated for 20 minutes at room temperature. The reaction was initiated by the addition of S-Adenosyl-L-[methyl-^3H] methionine (3H-SAM; 1 μM), and the mixture was incubated for 1 hour at 30° C. The reaction mixture was delivered to filter paper and the methylated substrate was quantified by scintillation counting. Data analysis was performed using Excel and GraphPad Prism software for IC50 curve fits. For additional information on the histone methyltransferase assay, see, for example, Horiuchi K Y, et al., “Assay Development for Histone Methyltransferases,” Assay Drug Dev Technol. 2013 May; 11(4):227-36.

## COC(=O)COc1cc(F)c(-c2cc(Cn3cnc4c(N)ncnc43)c(N3CCC[C@](N)([C@H](O)C(F)F)C3)cn2)cc1F [III-35, methyl 2-(4-(5-((R)-3-amino-3-((S)-2,2-difluoro-1-hydroxyethyl)piperidin-1-yl)-4-((6-amino-9H-purin-9-yl)methyl)pyridin-2-yl)-2,5-difluorophenoxy)acetate]
[1]
  IC50: < 2 nM
[2]
  IC50: < 1 nM

## Nc1ncnc2c1ncn2Cc1cc(-c2cc(F)c(O)cc2F)ncc1N1CCC[C@](N)([C@H](O)C(F)F)C1 [Compound J, 4-(5-((R)-3-amino-3-((S)-2,2-difluoro-1-hydroxyethyl)piperidin-1-yl)-4-((6-amino-9H-purin-9-yl)methyl)pyridin-2-yl)-2,5-difluorophenol]
[1]
  IC50: 2 to 20 nM
